Measured values from publication PMC5897741, “Thermokinetic profile of NDM-1 and its inhibition by small carboxylic acids” (Bioscience Reports, 2018).

How the values were obtained:
[1] = test system: CcrA; conditions: cited from earlier work
[2] = target: T1, NDM-1 (Klebsiella pneumoniae, UniProt C7C422); test: ITC multi-injection inhibition assay; assay type: biochemical; parameters: made in house; host or cells: E. coli; conditions: for Kiu (uncompetitive inhibition constant): ITC inhibition assay, penicillin G, 25°C, 50 mM Tris–HCl, pH 7.0, 100 mM NaCl; for mode of inhibition: pH 7.0
T1 sequence (C7C422 29-270 limits assumed): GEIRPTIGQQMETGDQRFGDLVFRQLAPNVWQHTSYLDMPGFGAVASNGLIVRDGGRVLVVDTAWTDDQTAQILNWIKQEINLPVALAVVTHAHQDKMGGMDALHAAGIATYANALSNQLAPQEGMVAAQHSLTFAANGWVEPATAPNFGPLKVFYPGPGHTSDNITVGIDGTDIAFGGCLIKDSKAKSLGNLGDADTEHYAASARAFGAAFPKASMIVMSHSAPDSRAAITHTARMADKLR
Excerpt: Competitive (Kic) and uncompetitive (Kiu) inhibition constant values for each inhibitor were obtained by fitting calculated reaction rates (υ) at different inhibitor concentrations to (eqn 5) using nonlinear regression analysis in Origin software (embedded with ITC), with Kic and Kiu set as shared parameters between all datasets, inhibitor concentration [I], [E]tot, [S] as independent variables and υ as dependent variable.

[3] = test system: clinical E. coli strain expressing NDM-1 gene (E. coli–NDM-1); conditions: 400 μM compound, imipenem titrated into E. coli–NDM-1 suspension; efficacy order 7 > 1 > 8
[4] = test system: clinical E. coli–NDM-1 strain; test: MIC determination, broth microdilution (CLSI); assay type: cell-based, Escherichia coli; conditions: for synergistic effect with imipenem: 200 and 400 μM inhibitor
Description: Single colonies of E. coli–NDM-1 were used to inoculate Mueller–Hinton medium and were grown at 37°C overnight. […] Results were obtained after incubating the microtitre plate at 37°C for a further 18 h and turbidity of bacterial growth was recorded using a plate reader.

[5] = target: T1, NDM-1; test: biochemical
Description: Rates were also determined in the presence of inhibitor by pre-incubation with the enzyme for 30 min at RT before starting kinetic experiments. IC50 values were determined using GraphPad Prism5 software (GraphPadSoftware, La Jolla, CA, USA) by plotting percentage of inhibition against inhibitor concentration; average values from three measurements are reported.

[6] = test system: L1; conditions: cited from earlier work
[7] = test system: ImiS; conditions: cited from earlier work
[8] = target: T1, NDM-1; conditions: ITC, pH 7.0, 25°C
Excerpt: Successive injections of antibiotic into the sample cell were made at 120 s intervals. Following (eqn 3), the change in thermal power (dQ/dt) from each titration was converted into the reaction rate (υ). These rates were used to fit to the Michaelis–Menten equation (eqn 4) to obtain the kinetic parameters KM (Michaelis–Menten constant) and kcat (turnover rates), where [E]tot is the total concentration of active enzyme. (3) υ=dP/dt=1/VΔHapp⋅dQ/dt (4) υ=kcat[E]tot[S]/KM+[S]

[9] = target: T1, NDM-1; test: ITC single injection assay, enthalpy of β-lactam hydrolysis; assay type: biochemical; parameters: made in house; host or cells: E. coli; conditions: for ΔHapp: NDM-1 catalysed hydrolysis, Tris–HCl pH 7.0, 25°C; for ΔHint: Y-axis intercept of ΔHapp vs ΔHion; for ΔHint / n (number of exchanging protons): pH 7.0; for n (number of exchanging protons): slope of ΔHapp vs ΔHion
Description: Real-time changes of heat-flow were recorded continuously until return to baseline. Control experiments were performed by titrating substrate to buffer and using those data in corrections for heat of dilution before values of ΔHapp were determined using the embedded Origin software, by dividing integrated heat by the molar quantity of substrate converted according to (eqn 1), where dQ/dt is the rate of heat production, V is the volume of the sample cell and [S]t = 0 is the substrate concentration: (1) ΔH=ft=0∞dQ/dtdt/(V[S](t=0))
Experiments were also repeated in HEPES and phosphate buffers and the intrinsic enthalpy change (ΔHint) of the reactions calculated according to (eqn 2) by plotting the measured ΔHapp as a function of ΔHion, where ΔHion is the ionisation enthalpy of the buffer used and n represents the number of exchanging protons. The values of ΔHion used in the calculation were ΔHion (Tris–HCl) = 11.34 kcal/mol, ΔHion (HEPES) = 4.88 kcal/mol and ΔHion (phosphate) = 0.86 kcal/mol. (2) ΔHapp=ΔHint+n ΔHion

[10] = target: T1, NDM-1; parameters: made in house; host or cells: E. coli; method as in doi:10.1016/j.ejbas.2015.07.006; conditions: cited from earlier work
[11] = test system: CphA; conditions: cited from earlier work
[12] = test system: IMP-1; conditions: cited from earlier work

**Q.** With `O=C(O)[C@H]1CS[C@@H](C(=O)O)N1` (racemic) [Compound 8, rac-thiazolidine-2,4-dicarboxylic acid] as the compound, how does the “effect on activity” value [1] read?
**A.** Its value is “powerful effect”.

**Q.** And the Ki ([1]; class B1 CcrA)?
**A.** Its Ki is 0.64 µM.

**Q.** What about the Ki [2] of the same compound?
**A.** The Ki was 152 ± 6 µM.

**Q.** What about the “Kiu (uncompetitive inhibition constant)” value [2] of the same compound?
**A.** Its value is 5 ± 0.46 µM.

**Q.** And the mode of inhibition [2]?
**A.** Its mode of inhibition is “predominantly uncompetitive”.

**Q.** What about the “inhibition of imipenem turnover in live bacteria” value [3] of the same compound?
**A.** Its value is “capable of inhibiting the turnover rate of imipenem”.

**Q.** What about the “MIC of imipenem in combination with inhibitor” value (“MIC … with inhibitor” for short) ([4]; 200 μM inhibitor) of the same compound?
**A.** Its value is 16 µg/mL.

**Q.** And the “MIC … with inhibitor” value ([4]; 400 μM inhibitor)?
**A.** The value was 8 µg/mL.

**Q.** And the “reduction of MIC of imipenem” value ([4]; 400 μM inhibitor)?
**A.** The value was 2 fold.

**Q.** What about the “synergistic effect with imipenem” value [4] of the same compound?
**A.** The value was “weaker synergy”.

**Q.** And the IC50 [5]?
**A.** Its IC50 is 3.45 ± 0.26 µM.

**Q.** And the “effect on activity” value [6]?
**A.** The value was “powerful effect”.

**Q.** And the Ki ([6]; class B3 L1)?
**A.** Its Ki is 1.8 µM.

**Q.** What about the “effect on activity” value [7] of the same compound?
**A.** The value was “powerful effect”.

**Q.** And the Ki ([7]; class B2 ImiS)?
**A.** The Ki was 7.1 µM.

**Q.** For `Cc1nnc(SCC2=C(C(=O)O)N3C(=O)[C@@H](NC(=O)Cn4cnnn4)[C@H]3SC2)s1` [Cefazolin, cefazolin], which Km [8] is on record?
**A.** Its Km is 237 ± 14 µM.

**Q.** And the kcat [8]?
**A.** Its kcat is 42 ± 1 s⁻¹.

**Q.** And the ΔHapp [9]?
**A.** Its ΔHapp is -28.3 ± 0.97 kcal/mol.

**Q.** What about the ΔHapp ([9]; listed as cefazolin) of the same compound?
**A.** Its ΔHapp is “–28.3 kcal/mol”.

**Q.** And the ΔHint [9]?
**A.** The ΔHint was -5.20 ± 0.04 kcal/mol.

**Q.** What about the “n (number of exchanging protons)” value [9] of the same compound?
**A.** Its value is −1.89 ± 0.04.

**Q.** For `C[C@H](CS)C(=O)N1CCC[C@@H]1C(=O)O` [Compound 1, D-Captopril, reference compound], which “Kiu (uncompetitive inhibition constant)” value [2] is on record?
**A.** Its value is 178 ± 21 µM.

**Q.** With `Cc1cc(/N=N/c2ccc(O)c(C(=O)O)c2)ccc1O` [Compound 2] as the compound, how does the “predicted inhibition in docking” value [10] read?
**A.** Its value is “predicted to inhibit NDM-1”.

**Q.** What does the source list for `O=C(O)[C@@H](O)[C@H](O)C(=O)O` [Compound 5, D-(−)-tartaric acid]?
**A.** Ki [2]: 365 ± 72 µM; Kiu (uncompetitive inhibition constant) [2]: 993 ± 107 µM; mode of inhibition [2]: mainly competitive; IC50 [5]: 409 ± 16 µM

**Q.** Which Ki [2] does the source give for `O=C(O)/C=C/C(=O)O` [Compound 6, fumaric acid] here?
**A.** Its Ki is 198 ± 50 µM.

**Q.** What about the “Kiu (uncompetitive inhibition constant)” value [2] of the same compound?
**A.** Its value is 638 ± 94 µM.

**Q.** What about the mode of inhibition [2] of the same compound?
**A.** Its mode of inhibition is “mainly competitive”.

**Q.** What about the IC50 [5] of the same compound?
**A.** The IC50 was 232 ± 5 µM.

**Q.** For `O=C(O)c1cccc(C(=O)O)n1` [Compound 7, pyridine-2,6-dicarboxylic acid], which Ki [2] is on record?
**A.** Its Ki is 2.17 ± 0.48 µM.

**Q.** What about the “Kiu (uncompetitive inhibition constant)” value [2] of the same compound?
**A.** The value was 2.07 ± 0.06 µM.

**Q.** And the mode of inhibition [2]?
**A.** The mode of inhibition was “mixed inhibitor”.

**Q.** And the “inhibition of imipenem turnover in live bacteria” value [3]?
**A.** Its value is “capable of inhibiting the turnover rate of imipenem”.

**Q.** What about the “inhibition” value [11] of the same compound?
**A.** Its value is “effective inhibitor”.

**Q.** What about the “inhibition” value [12] of the same compound?
**A.** Its value is “effective inhibitor”.

**Q.** What about the “MIC … with inhibitor” value ([4]; 200 μM inhibitor) of the same compound?
**A.** Its value is 4 µg/mL.

**Q.** And the “MIC … with inhibitor” value ([4]; 400 μM inhibitor)?
**A.** Its value is 1 µg/mL.

**Q.** What about the “synergistic effect with imipenem” value [4] of the same compound?
**A.** Its value is “restore the susceptibility”.

**Q.** And the IC50 [5]?
**A.** Its IC50 is 1.13 ± 0.04 µM.

**Q.** Which results are given for `C[C@@H](O)[C@H]1C(=O)N2C(C(=O)O)=C(SCCN=CN)C[C@H]12` [Imipenem, imipenem]?
**A.** Km [8]: 168 ± 28 µM; kcat [8]: 23 ± 1 s⁻¹; MIC ([4]; Escherichia coli, 0 μM inhibitor, read-out: MIC of imipenem): 16 µg/mL; ΔHapp [9]: -32.5 ± 0.08 kcal/mol; ΔHapp ([9]; listed as imipenem): –32.5 kcal/mol; ΔHint [9]: -18.4 ± 0.12 kcal/mol; n (number of exchanging protons) [9]: −1.24 ± 0.02; n (number of exchanging protons) ([9]; listed as imipenem): −1.24 (± 0.02)

**Q.** What does the source list for `CC1(C)S[C@@H]2[C@H](NC(=O)Cc3ccccc3)C(=O)N2[C@H]1C(=O)O` [Penicillin G, penicillin G]?
**A.** Km [8]: 139 ± 12 µM; kcat [8]: 54 ± 1 s⁻¹; ΔHapp [9]: -27.9 ± 0.01 kcal/mol; ΔHapp ([9]; listed as penicillin G): –27.9 kcal/mol; ΔHint [9]: -18.3 ± 0.73 kcal/mol; n (number of exchanging protons) [9]: −0.87 ± 0.10; n (number of exchanging protons) ([9]; listed as penicillin G): −0.87 (± 0.10)
